Laboratory results taken from ChEMBL document CHEMBL1201862, “PubChem BioAssay data set” (2004).
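Grown in 96-well plates, cells were treated for 48 hours with each compound at five concentrations. Insufficient inhibition: endpoint recorded as highest concentration tested. GI50 is the concentration that inhibits growth by half.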 The source made the active and inactive calls. Rule as the data show it: active = GI50 up to about 1.1 µM and inactive = higher.

Tests used:
Assay in all cases: growth of human tumour cells (NCI), 48 h
[1] = tested on: NCI/ADR-RES
[2] = tested on: MOLT-4
[3] = tested on: NCI-H226
[4] = tested on: SK-OV-3
[5] = tested on: SF-295
[6] = tested on: EKVX
[7] = tested on: RPMI-8226
[8] = tested on: HCC 2998
[9] = tested on: SK-MEL-2
[10] = tested on: SK-MEL-28
[11] = tested on: SR
[12] = tested on: MDA-MB-435
[13] = tested on: HCT-15
[14] = tested on: UACC-257
[15] = tested on: SF-539
[16] = tested on: A549
[17] = tested on: UACC-62
[18] = tested on: 786-0
[19] = tested on: SK-MEL-5
[20] = tested on: Malme-3M

With `O=c1cc(-c2ccc(O)cc2)oc2cc(O[C@@H]3O[C@H](CO)[C@@H](O)[C@H](O)[C@H]3O)cc(O)c12` [APIGETRIN] as the molecule, how does the GI50 [1] read?
Its GI50 is 42 µM (inactive).

And the GI50 [2]?
The GI50 was 32.5 µM (inactive).

What about the GI50 [3] of the same molecule?
Its GI50 is 26.7 µM (inactive).

And the GI50 [4]?
The GI50 was > 100 µM (inactive).

What about the GI50 [5] of the same molecule?
Its GI50 is 62.8 µM (inactive).

What about the GI50 [6] of the same molecule?
The GI50 was > 100 µM (inactive).

And the GI50 [7]?
Its GI50 is > 100 µM (inactive).

What about the GI50 [8] of the same molecule?
The GI50 was 36.1 µM (inactive).

And the GI50 [9]?
The GI50 was 61.5 µM (inactive).

And the GI50 [10]?
The GI50 was 98.4 µM (inactive).

What about the GI50 [11] of the same molecule?
The GI50 was 0.0752 µM (active).

What about the GI50 [12] of the same molecule?
The GI50 was 71.6 µM (inactive).

And the GI50 [13]?
The GI50 was 16.6 µM.

And the GI50 [14]?
Its GI50 is > 100 µM (inactive).

What about the GI50 [15] of the same molecule?
The GI50 was 48.5 µM (inactive).

And the GI50 [16]?
Its GI50 is 51.3 µM (inactive).

What about the GI50 [17] of the same molecule?
Its GI50 is 43.3 µM (inactive).

What about the GI50 [18] of the same molecule?
Its GI50 is > 100 µM (inactive).

What about the GI50 [19] of the same molecule?
Its GI50 is 46 µM (inactive).

What does the source list for `CC(C)(C)OC(=O)C1=C(N)N(Cc2ccccc2)C2(C)C=CC(=O)C=C12` (stereo not drawn)?
GI50 [1]: 23.9 µM (inactive); GI50 [2]: 2.48 µM (inactive); GI50 [3]: 12.9 µM (inactive); GI50 [4]: 19.5 µM (inactive); GI50 [5]: 14.9 µM (inactive); GI50 [6]: 5.73 µM (inactive); GI50 [7]: 2.6 µM (inactive); GI50 [8]: 14.2 µM (inactive); GI50 [9]: 11.7 µM (inactive); GI50 [10]: 7.41 µM (inactive); GI50 [12]: 4.02 µM (inactive); GI50 [13]: 3.21 µM; GI50 [20]: 4.92 µM (inactive); GI50 [14]: 5.24 µM (inactive); GI50 [15]: 5.3 µM (inactive); GI50 [16]: 12.4 µM (inactive); GI50 [17]: 7.93 µM (inactive); GI50 [18]: 3.83 µM (inactive); GI50 [19]: 4.31 µM (inactive)

For `O=[N+]([O-])/C(C(Cl)=C(Cl)Cl)=C(\Nc1ccccc1)n1nnc2ccccc21`, which GI50 [1] is on record?
Its GI50 is 41.6 µM (inactive).

What about the GI50 [2] of the same molecule?
Its GI50 is 35.5 µM (inactive).

And the GI50 [3]?
The GI50 was > 100 µM (inactive).

What about the GI50 [4] of the same molecule?
Its GI50 is 71.3 µM (inactive).

What about the GI50 [5] of the same molecule?
Its GI50 is 44.7 µM (inactive).

And the GI50 [6]?
Its GI50 is > 100 µM (inactive).

And the GI50 [7]?
Its GI50 is 21.6 µM (inactive).

And the GI50 [8]?
The GI50 was > 100 µM (inactive).

And the GI50 [9]?
The GI50 was 27.2 µM (inactive).

And the GI50 [10]?
The GI50 was 32.7 µM (inactive).

And the GI50 [12]?
Its GI50 is 26.8 µM (inactive).

What about the GI50 [13] of the same molecule?
Its GI50 is > 100 µM.

What about the GI50 [20] of the same molecule?
Its GI50 is 46.1 µM (inactive).

And the GI50 [14]?
Its GI50 is > 100 µM (inactive).

What about the GI50 [15] of the same molecule?
Its GI50 is 32.3 µM (inactive).

And the GI50 [16]?
Its GI50 is > 100 µM (inactive).

And the GI50 [17]?
Its GI50 is 40 µM (inactive).

What about the GI50 [18] of the same molecule?
The GI50 was 48.9 µM (inactive).

How did the GI50 [1] turn out when `C1=N\CCN2CCN(CC/N=C\c3ccccc3OCc3cccc(n3)COc3ccccc3/1)CC2` was run?
Its GI50 is 2.28 µM (inactive).

And the GI50 [2]?
Its GI50 is 4.6 µM (inactive).

What about the GI50 [4] of the same molecule?
The GI50 was 16.9 µM (inactive).

What about the GI50 [5] of the same molecule?
Its GI50 is 3.62 µM (inactive).

What about the GI50 [6] of the same molecule?
Its GI50 is 13 µM (inactive).

And the GI50 [7]?
The GI50 was 2.48 µM (inactive).

What about the GI50 [9] of the same molecule?
The GI50 was 20.6 µM (inactive).

What about the GI50 [10] of the same molecule?
Its GI50 is 13.8 µM (inactive).

What about the GI50 [11] of the same molecule?
Its GI50 is 1.71 µM (inactive).

What about the GI50 [12] of the same molecule?
The GI50 was 0.973 µM (active).

And the GI50 [13]?
The GI50 was 6.01 µM.

And the GI50 [20]?
Its GI50 is 6.12 µM (inactive).

What about the GI50 [14] of the same molecule?
The GI50 was 10.5 µM (inactive).

What about the GI50 [15] of the same molecule?
The GI50 was 3 µM (inactive).

What about the GI50 [16] of the same molecule?
The GI50 was 44.6 µM (inactive).

And the GI50 [17]?
Its GI50 is 1.73 µM (inactive).

What about the GI50 [18] of the same molecule?
Its GI50 is 5.13 µM (inactive).

How did the GI50 [1] turn out when `O=C(Nc1cccc(C(F)(F)F)c1)c1cc(Br)cc(Br)c1O` [FLUOROSALAN] was run?
Its GI50 is 2.36 µM (inactive).

And the GI50 [2]?
Its GI50 is 3.15 µM (inactive).

What about the GI50 [3] of the same molecule?
Its GI50 is 3.51 µM (inactive).

What about the GI50 [4] of the same molecule?
Its GI50 is 2.81 µM (inactive).

What about the GI50 [5] of the same molecule?
Its GI50 is 2.62 µM (inactive).

What about the GI50 [6] of the same molecule?
Its GI50 is 2.19 µM (inactive).

What about the GI50 [7] of the same molecule?
Its GI50 is 2.08 µM (inactive).

What about the GI50 [8] of the same molecule?
Its GI50 is 3.03 µM (inactive).

What about the GI50 [9] of the same molecule?
Its GI50 is 2.32 µM (inactive).

What about the GI50 [10] of the same molecule?
Its GI50 is 3.38 µM (inactive).

And the GI50 [11]?
Its GI50 is > 10 µM (inactive).

What about the GI50 [12] of the same molecule?
The GI50 was 3.2 µM (inactive).

And the GI50 [13]?
The GI50 was 4.5 µM.

And the GI50 [14]?
The GI50 was 2.52 µM (inactive).

And the GI50 [15]?
The GI50 was 3.55 µM (inactive).

And the GI50 [16]?
The GI50 was 2.83 µM (inactive).

And the GI50 [17]?
The GI50 was 3.56 µM (inactive).

And the GI50 [18]?
Its GI50 is 3.63 µM (inactive).

And the GI50 [19]?
The GI50 was 1.65 µM (inactive).

Which GI50 [1] does the source give for `CCOC(=O)C1(C#N)C(=O)c2cc[n+](CC[n+]3ccc4c(c3)C(=O)C(C#N)(C(=O)OCC)C4=O)cc2C1=O` (stereo not drawn) here?
The GI50 was > 100 µM (inactive).

And the GI50 [2]?
Its GI50 is > 100 µM (inactive).

What about the GI50 [3] of the same molecule?
The GI50 was > 100 µM (inactive).

And the GI50 [4]?
The GI50 was > 100 µM (inactive).

What about the GI50 [5] of the same molecule?
Its GI50 is > 100 µM (inactive).

What about the GI50 [6] of the same molecule?
Its GI50 is > 100 µM (inactive).

And the GI50 [7]?
Its GI50 is > 100 µM (inactive).

What about the GI50 [8] of the same molecule?
The GI50 was > 100 µM (inactive).

What about the GI50 [9] of the same molecule?
Its GI50 is 36.1 µM (inactive).

And the GI50 [10]?
The GI50 was > 100 µM (inactive).

And the GI50 [12]?
The GI50 was > 100 µM (inactive).

And the GI50 [13]?
The GI50 was > 100 µM.

And the GI50 [20]?
The GI50 was 60.4 µM (inactive).

What about the GI50 [14] of the same molecule?
Its GI50 is > 100 µM (inactive).

What about the GI50 [15] of the same molecule?
Its GI50 is > 100 µM (inactive).

What about the GI50 [16] of the same molecule?
The GI50 was > 100 µM (inactive).

And the GI50 [17]?
Its GI50 is > 100 µM (inactive).

And the GI50 [18]?
The GI50 was > 100 µM (inactive).

What about the GI50 [19] of the same molecule?
The GI50 was 18.4 µM (inactive).

Which results are given for `CCSC1=CC2(O)N(CCc3ccc(OC)c(OC)c3)C(=O)CC2(C(=O)OC)CC1=O` (stereo not drawn)?
GI50 [1]: 65.9 µM (inactive); GI50 [2]: 23.8 µM (inactive); GI50 [3]: > 100 µM (inactive); GI50 [4]: 86.9 µM (inactive); GI50 [5]: > 100 µM (inactive); GI50 [6]: 40.1 µM (inactive); GI50 [7]: 29.4 µM (inactive); GI50 [8]: 18.5 µM (inactive); GI50 [9]: 21.1 µM (inactive); GI50 [10]: 37.2 µM (inactive); GI50 [11]: 19.6 µM (inactive); GI50 [12]: 21.2 µM (inactive); GI50 [13]: 25.8 µM; GI50 [14]: 17.9 µM (inactive); GI50 [15]: 26.3 µM (inactive); GI50 [16]: > 100 µM (inactive); GI50 [17]: 19.5 µM (inactive); GI50 [18]: 19.3 µM (inactive); GI50 [19]: 41.2 µM (inactive)

Which results are given for `O=C1c2ccccc2-c2nnc3c(c21)-c1ccccc1C3`?
GI50 [1]: > 100 µM (inactive); GI50 [2]: 24.5 µM (inactive); GI50 [3]: 43.5 µM (inactive); GI50 [4]: > 100 µM (inactive); GI50 [5]: > 100 µM (inactive); GI50 [6]: 18.5 µM (inactive); GI50 [7]: 57.1 µM (inactive); GI50 [9]: > 100 µM (inactive); GI50 [11]: 12 µM (inactive); GI50 [12]: > 100 µM (inactive); GI50 [13]: 39.4 µM; GI50 [20]: > 100 µM (inactive); GI50 [14]: > 100 µM (inactive); GI50 [15]: 93.8 µM (inactive); GI50 [16]: 62.7 µM (inactive); GI50 [17]: 37.6 µM (inactive); GI50 [18]: > 100 µM (inactive); GI50 [19]: 66.8 µM (inactive)
